Laboratory results: US8642510B2, “Inhibitors for brassinosteroid signalling” (GMI-Gregor Mendel-Institut fuer Molekulare Pflanzenbiologie …, priority 2008, dated 2014)
Entries after “also recorded” stand apart in the source; their conditions may differ.

Experiments:
[1] = Cell-permeability assay (uptake by seedlings); type: in vivo, A. thaliana; settings: 50 μM in medium
Description: FIG. 6: Methylation increases tissue-permeability. A. thaliana seedlings were incubated in 50 μM solutions of compounds 10 and 15 in ½MS medium. Samples were taken after the indicated time and the in situ levels of compound 15 analysed by HPLC. The solid line represents the results for plants incubated with compound 10 and the dashed line the results for compound 15. The means and standard deviations were calculated from 3 independent assays.
Two-week-old A. thaliana Co10 seedlings were transferred to ½MS medium containing 50 μM inhibitor. Samples were removed after the indicated time points, rinsed with water, dried with filter paper and frozen in liquid nitrogen. For analysis the plant material was ground to a fine powder in a mortar pre-cooled with liquid nitrogen. […]
The cell-permeability of a substance is an important characteristic influencing its in vivo potency. The uptake of compounds 10 and 15 by plants was determined by treatment of seedlings with solutions of these compounds and subsequent quantification of the internalised inhibitor concentrations (FIG. 6). Since compound 10 is rapidly converted to 15, only the in situ concentration of 15 was measured. […] While 50 μM were present in the medium, in situ concentrations of about 90 μM could be measured in the case of compound 15 and up to 190 μM in the case of application of compound 10.

[2] = Determination of pKa values; settings: pH5.8, the pH of the medium
Description: Fifty to 100 mg compound were weighed and dissolved in 50 ml 50% (v/v) methanol. A titration curve with 50 mM NaOH as standard solution was recorded with a Greisinger electonics GPHR 1400A pH meter. The equivalence point was determined by the difference quotient method (ΔpH/ΔVNaOH) and the pKa read from the titration curve at 50% neutralisation.

ASKζ = molecular target: T1, ASKζ (Arabidopsis thaliana, UniProt Q39010); test: In vivo kinase assay, BZR1-CFP phosphorylation band-shift in protoplasts; type: cell-based, A. thaliana; settings: protoplasts co-transformed with BZR1-CFP and Myc-tagged ASK; increasing concentrations
T1 construct: expressed in transfected cells; host or cells: A. thaliana protoplasts
T1 sequence (Q39010 1-412): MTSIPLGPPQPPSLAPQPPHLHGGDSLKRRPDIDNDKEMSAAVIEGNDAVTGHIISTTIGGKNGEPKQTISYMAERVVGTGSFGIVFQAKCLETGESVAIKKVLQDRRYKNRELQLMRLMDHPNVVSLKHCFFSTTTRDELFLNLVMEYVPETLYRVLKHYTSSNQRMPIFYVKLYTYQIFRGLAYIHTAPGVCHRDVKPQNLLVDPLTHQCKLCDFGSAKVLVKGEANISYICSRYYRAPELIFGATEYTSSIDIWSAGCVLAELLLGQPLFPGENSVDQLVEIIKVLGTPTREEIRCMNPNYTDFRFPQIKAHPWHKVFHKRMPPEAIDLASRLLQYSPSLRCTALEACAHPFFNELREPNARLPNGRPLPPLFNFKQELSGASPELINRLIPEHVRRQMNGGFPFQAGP
Text: A. thaliana protoplasts were co-transformed with expression constructs of BZR1-CFP and Myc-tagged ASKζ and treated with increasing concentrations of compounds 10 and 15. […] and ASKζ-Myc were detected by western blot analysis using polyclonal anti-GFP and monoclonal anti-Myc antibodies, respectively. A Coomassie R250 stain is shown as a loading control. Depending on the ASKζ kinase activity BZR1-CFP can be observed in a phosphorylated or unphosphorylated form (indicated by arrows). The ratio of the two ASKζ-Myc bands, indicating posttranslational modification of this protein, were not affected by inhibitor application.
ASKs were expressed as GST-fusion proteins in E. coli BL21. […] The reaction products were separated by SDS-PAGE and the amount of radioactivity incorporated into MBP quantified using an Amersham storage phosphor imager screen and a Biorad Molecular Imager FX. In vivo kinase activity was detected by phosphorylation band-shift assays using BZR1-CFP as substrate.
Because of this unexpected result, the effect of the inhibitions on the in vivo ASK activity was analysed by a direct method. […] Transformed protoplasts were incubated with different concentrations of compounds 10 and 15 and BZR1-CFP and […] and subsequently analysed by western blotting.

bri1-1 mutant seedlings = test: Physiological test, phenotype rescue of brassinosteroid signalling mutant bri1-1; type: in vivo, Arabidopsis thaliana; settings: 30 μM in medium, 7 days
Description: (§1) FIG. 3: Effects on the phenotype of brassinosteroid mutants. 7-day-old seedlings of the brassinosteroid synthesis mutant cpd and signalling mutant bri1-1 were transferred to MS medium containing 1 μM epi-brassinolide (Epi-BL) or compounds 10 and 15 at a concentration of 30 μM and incubated for 7 days under long day conditions. All pictures were taken at the same magnification. The bar represents 1 mm.
(§2) Arabidopsis thaliana Co10 or bri1-1 seedlings were grown in vitro on ½ MS plates containing 1% sucrose in a growth camber under long day conditions (16 h light with 50 μE·m^−2·s^−1, 8 h dark) for 7 days. Subsequently, they were transferred to plates supplemented with inhibitors at different concentrations and effects on the phenotype were observed 7 days later.
(§3) Downregulation of ASK activity is crucial in brassinosteroid signalling. ASKs are constitutively active in cpd and bril-1 mutants, which are defective in brassinosteroid biosynthesis or signalling, respectively. This leads to severely dwarfed plants with dark green downward curled leaves and shortened hypocotyls. […] To screen for in vivo potency, cpd and bril-1 mutants were transferred to media containing 4-[(5-bromo-2-pyridinyl)amino]-4-oxobutanoic acid derivatives at a concentration of 30 μM. […] The potency to rescue the phenotype correlated with the results of the in vitro assay.

cpd mutant seedlings = test: Physiological test, phenotype rescue of brassinosteroid synthesis mutant cpd; type: in vivo, Arabidopsis thaliana; settings: 30 μM in medium, 7 days
Description: as §1, §2, §3

## COC(=O)CCC(=O)Nc1ccc(I)cn1 [Compound 10, 4-[(5-iodopyrid-2-yl)amino]-4-oxobutanoic acid methyl ester]
[1]
  Uptake rate relative to compound 15: roughly double
[1]; result in words
  Tissue permeability / uptake: higher tissue permeability; also recorded: very rapid uptake
[2]
  Portion undissociated / lipophilic, capable of diffusion through the membrane: 100%
ASKζ
  Inhibition of in vivo ASK activity (BZR1-CFP phosphorylation shift): potent inhibitors in vivo; also recorded: highly active
bri1-1 mutant seedlings
  Rescue of bri1-1 mutant phenotype: highly active in vivo
Cpd mutant seedlings
  Rescue of cpd mutant phenotype: highly active in vivo
